Laboratory results as given in BindingDB's records for PubMed 34705450 (Astex Pharmaceuticals, 2021).

The molecules below were run against Kelch-like ECH-associated protein 1 (Homo sapiens, UniProt Q14145).
Sequence of Kelch-like ECH-associated protein 1 (Q14145 whole entry): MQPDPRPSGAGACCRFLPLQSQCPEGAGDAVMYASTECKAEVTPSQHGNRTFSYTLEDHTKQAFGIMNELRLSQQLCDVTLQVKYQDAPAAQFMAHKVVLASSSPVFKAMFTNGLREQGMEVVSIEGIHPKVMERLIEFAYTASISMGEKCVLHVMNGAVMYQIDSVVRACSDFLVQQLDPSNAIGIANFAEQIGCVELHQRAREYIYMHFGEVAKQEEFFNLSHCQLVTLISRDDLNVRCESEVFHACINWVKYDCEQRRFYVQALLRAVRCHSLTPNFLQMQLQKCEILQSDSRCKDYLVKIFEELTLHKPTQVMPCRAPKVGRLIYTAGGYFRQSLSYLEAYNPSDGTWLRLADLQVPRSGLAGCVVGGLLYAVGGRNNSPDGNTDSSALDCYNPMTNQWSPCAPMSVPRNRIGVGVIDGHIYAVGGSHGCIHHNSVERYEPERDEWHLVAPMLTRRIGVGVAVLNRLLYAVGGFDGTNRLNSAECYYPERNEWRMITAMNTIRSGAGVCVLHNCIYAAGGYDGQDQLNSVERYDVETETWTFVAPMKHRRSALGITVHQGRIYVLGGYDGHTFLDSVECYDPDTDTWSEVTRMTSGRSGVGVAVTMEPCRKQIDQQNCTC

For `CCCC1CCCCN1C(=O)c1cccc(-c2cccc(-n3ncc(C(=O)O)c3C3CC3c3ccccn3)c2)c1` (stereo unspecified), the IC50 was 42 nM.

What follows are molecules tested against T1, Nuclear factor erythroid 2-related factor 2 (Homo sapiens, UniProt Q16236) (assay: Induction of Nrf2 in human BEAS-2B cells assessed as increase in NQO1 protein level incubated for 48 hrs by MTT assay).
T1 sequence (Q16236 whole entry): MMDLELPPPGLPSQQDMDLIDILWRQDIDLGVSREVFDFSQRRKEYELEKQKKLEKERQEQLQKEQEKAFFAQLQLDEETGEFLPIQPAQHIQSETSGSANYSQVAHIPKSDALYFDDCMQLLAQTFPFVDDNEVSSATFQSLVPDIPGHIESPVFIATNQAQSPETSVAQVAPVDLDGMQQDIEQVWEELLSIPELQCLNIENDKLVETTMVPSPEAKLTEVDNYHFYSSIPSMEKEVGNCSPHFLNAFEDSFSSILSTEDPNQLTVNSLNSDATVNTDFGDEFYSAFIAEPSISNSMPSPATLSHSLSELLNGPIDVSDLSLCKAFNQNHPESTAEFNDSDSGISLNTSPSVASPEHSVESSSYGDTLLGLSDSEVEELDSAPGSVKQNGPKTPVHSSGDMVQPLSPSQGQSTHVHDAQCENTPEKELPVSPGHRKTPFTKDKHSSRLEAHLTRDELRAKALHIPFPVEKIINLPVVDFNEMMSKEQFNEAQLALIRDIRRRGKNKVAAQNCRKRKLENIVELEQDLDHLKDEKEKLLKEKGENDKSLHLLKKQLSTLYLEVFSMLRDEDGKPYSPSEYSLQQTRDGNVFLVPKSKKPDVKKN

`CN(C)C(=O)c1cccc(-c2cccc(-n3ncc(C(=O)O)c3C3CC3)c2)c1` and `CN(C)C(=O)c1cccc(-c2cccc(-n3ncc(C(=O)O)c3C3CC3)c2)c1F` are within 1.5-fold of each other in EC50: 1400 nM for the first, 1300 nM for the second.

Compared with `O=C(O)c1cnn(-c2cccc(-c3cccc(C(=O)N4CCCCC4)c3F)c2)c1C1CC1`, `O=C(O)c1cnn(-c2cccc(-c3cccc(C(=O)N4CCCC5(CCCC5)C4)c3F)c2)c1C1CC1` is 1.6-fold higher in EC50: 2300 nM for the first, 3700 nM for the second. The first is the more potent here.

`CCC[C@H]1CCCCN1C(=O)c1cccc(-c2cccc(-n3ncc(C(=O)O)c3C3CC3)c2)c1F` and `CCC[C@@H]1CCCCN1C(=O)c1cccc(-c2cccc(-n3ncc(C(=O)O)c3C3CC3)c2)c1F` are the same in EC50: 3500 nM for the first, 3500 nM for the second.

First: CN(C)C(=O)[C@H]1CCC[C@@H](c2cccc(-n3ncc(C(=O)O)c3C3CC3)c2)C1
Second: O=C(O)c1cnn(-c2cccc([C@@H]3CCC[C@H](C(=O)N4CCCCC4)C3)c2)c1C1CC1
The EC50 of the first is 1.6-fold lower: 1700 nM for the first, 2700 nM for the second. The first is the more potent here.

`CCCC1CCCCN1C(=O)C1CCCC(c2cccc(-n3ncc(C(=O)O)c3C3CC3)c2)C1` (stereo unspecified) and `CCCCC1CCCN1C(=O)C1CCCC(c2cccc(-n3ncc(C(=O)O)c3C3CC3)c2)C1` (stereo unspecified) are within 1.5-fold of each other in EC50: 4100 nM for the first, 4400 nM for the second.

`CCCC1CCCCN1C(=O)c1cccc(-c2cccc(-n3ncc(C(=O)O)c3C3CC3c3cccnc3)c2)c1` (stereo unspecified) and `CCCC1CCCCN1C(=O)c1cccc(-c2cccc(-n3ncc(C(=O)O)c3C3CC3c3ccccn3)c2)c1` (stereo unspecified) are within 1.5-fold of each other in EC50: 3200 nM for the first, 3800 nM for the second.

Going from `CN(CC1CC1)C(=O)c1cccc(-c2cccc(-n3ncc(C(=O)O)c3C3CC3)c2)c1F` to `O=C(O)c1cnn(-c2cccc(-c3cccc(C(=O)N(CC4CC4)CC4CC4)c3F)c2)c1C1CC1`, the EC50 rises from 2200 nM to 3500 nM (1.6-fold).

`CCCC1COCCN1C(=O)c1cccc(-c2cccc(-n3ncc(C(=O)O)c3C3CC3)c2)c1F` (stereo unspecified) and `CCCC1CCCCN1C(=O)c1cccc(-c2cccc(-n3ncc(C(=O)O)c3C3CC3c3cccnn3)c2)c1` (stereo unspecified) are within 1.5-fold of each other in EC50: 2500 nM for the first, 2800 nM for the second.

First: CCCC[C@@H]1CCCN1C(=O)[C@H]1CCC[C@@H](c2cccc(-n3ncc(C(=O)O)c3C3CC3)c2)C1
Second: CCCC1CCCCN1C(=O)c1cccc(-c2cccc(-n3ncc(C(=O)O)c3C3CC3c3cn(C)nn3)c2)c1 (stereo unspecified)
The EC50 of the first is 36-fold higher: 4300 nM for the first, 120 nM for the second.

Going from `CCC[C@@H]1CCCCN1C(=O)c1cccc(-c2cccc(-n3ncc(C(=O)O)c3[C@@H]3C[C@H]3c3cn(C)nn3)c2)c1` to `CCC[C@@H]1CCCCN1C(=O)c1cccc(-c2cccc(-n3ncc(C(=O)O)c3[C@H]3C[C@@H]3c3cn(C)nn3)c2)c1`, the EC50 falls from > 5000 nM to 43 nM. The second is the more potent here.
